Where a name gives a salt, the structure may show the parent alone. Read-outs that look alike come from different tables or passages of the source.
What was measured:
adjuvant arthritis = experiment: Adjuvant arthritis (method of Pearson), reduction in the increase in paw volume; assay type: in vivo, male rats of a Wistar-Lewis strain; settings: Rattus norvegicus, po; for inhibition in vivo at 50 mg/kg: 50 mg/kg p.o., once daily day 1 to day 5, rats; for ED50: read-out: ED50 in adjuvant arthritis; for inhibition in vivo at 12.5 mg/kg: * 12.5 mg/kg p.o.
Source text: 1. […] The experimental animals used were male rats of a Wistar-Lewis strain having a body weight between 130 and 200 g. […] The animals in a control group received only the vehicle. Each preparation and control group comprised 8 animals. The criterion for action was the percentage reduction in the increase in paw volume compared to that of the untreated control group.

[1] = Acute gastral ulcerogenity; design: species or system male Sprague-Dawley rats; settings: rat, in vivo, po
Protocol: 2. Acute gastral ulcerogenity
The investigation took place on 10 male Sprague-Dawley rats whose gastric mucous membrane had been sensitized by hunger stress. The body weight of the animals was between 200 and 300 g. While allowing free access to the drinking water, the feed was withdrawn from the animals 48 hours before administration of the test preparations until sacrifice of the animals. The rats were sacrificed 24 hours after oral substance administration, and the stomachs were removed, cleaned under running water and inspected for mucous membrane lesions. All macroscopically visible lesions were regarded as ulcers. The number of animals having ulcers was determined for each dose, and the UD50 values, i.e. the doses at which lesions were caused in 50% of the animals, were calculated from these figures by the method of Litchfield and Wilcoxon (J. Pharmacol. Exp. Ther. 96 (1949), p. 99).

in vivo = settings: mouse, ip; for LD50 at 168 h: read-out: Acute toxicity LD50
Protocol: The LD50 values were determined by a standard method from the mortality occurring within 7 days in NMRI (Naval Medical Research Institute) mice (6 animals per dose) after a single intraperitoneal (i.p.) administration.

[2] = system: Adriamycin-induced inflammation; experiment: Antioxidative action: inhibition of Adriamycin (doxorubicin) induced inflammation; assay type: in vivo, male Sprague-Dawley rats; settings: for Protective effect against Adriamycin-induced tissue destruction (in words): rats, oral; for Increase in paw volume: after 72 hours, control 390
Source text: 4. Antioxidative action According to current opinion, aggressive oxygen radicals, which are formed to excess during the chronic inflammation process and, as highly toxic inflammation mediators themselves, perpetually maintain the connective tissue destruction proceeding via irreversible lipid peroxidation of the cell membranes, participate prominently in the progressive course, caused by a number of factors, of rheumatoid arthritis and other inflammatory disorders. As a result, antioxidatively active pharmaceuticals which are capable of deactivating these extremely cytotoxic oxygen radicals should allow specific intervention in the chronic course of the inflammation. A suitable animal model for this type of tissue destruction caused by oxygen radicals is Adriamycin (doxorubicin) induced inflammation in rats. The investigations were carried out by the method of D. M. Siegel et al. (Inflammation 4 (1980), p. 233) on male Sprague-Dawley rats having a body weight of between 200 and 230 g in groups each with 7 animals, which received 0.1 mg of Adriamycin, dissolved in 0.1 ml of 0.9% strength sodium chloride solution, by subcutaneous injection into the left rear paw. The increase in paw volume after 72 hours was determined by plethysmography measurement as a measure of the degree of inflammation. The test preparations were administered orally once daily on the 4 successive days, starting with the day of Adriamycin injection, in a 1% strength aqueous carboxymethylcellulose suspension.

acetic acid stretching = experiment: Analgesic action: acetic acid stretching test; assay type: in vivo, female mice of a NMRI strain; settings: Mus musculus, 0.25 h; oral dose of 158 mg/kg, mice; read-out: Animals relieved of pain in %
Protocol: The analgesic action of the compounds of the formula I according to the invention was tested by means of the acetic acid stretching test on mice by the method of R. Koster et al., Fed. Prod. 18 (1959), p. 412.
The experimental animals used were female mice of a NMRI strain having a body weight (BW) between 21 and 28 g. Groups of 12 animals each received 0.1 ml/10 g of BW of a 0.6% strength acetic acid solution injected intraperitoneally. The test substances were administered 30 minutes beforehand. Immediately after the injection of acetic acid, the animals were placed alone and the number of typical stretching movements occurring within 15 minutes were counted, which comprise a brief tensing of the stomach muscles including the flank parts and subsequent stretching of the rear body and at least one read extremity.
The test substances were administered orally in a volume of 10 ml/kg of BW in a 1% strength aqueous carboxymethylcellulose (CMC) suspension.

5-lipoxygenase = target: T1, 5-lipoxygenase (Homo sapiens, UniProt P09917); experiment: Inhibition of 5-lipoxygenase: LTB4 formation in isolated polymorphonuclear human granulocytes; assay type: cell-based; settings: ionophor A 23 187, LTB4 by HPLC, 37° C.
T1 construct: in-vitro experiments on isolated polymorphonuclear human granulocytes; endogenous in cells; host or cells: isolated human polymorphonuclear granulocytes
T1 sequence (P09917 1-674): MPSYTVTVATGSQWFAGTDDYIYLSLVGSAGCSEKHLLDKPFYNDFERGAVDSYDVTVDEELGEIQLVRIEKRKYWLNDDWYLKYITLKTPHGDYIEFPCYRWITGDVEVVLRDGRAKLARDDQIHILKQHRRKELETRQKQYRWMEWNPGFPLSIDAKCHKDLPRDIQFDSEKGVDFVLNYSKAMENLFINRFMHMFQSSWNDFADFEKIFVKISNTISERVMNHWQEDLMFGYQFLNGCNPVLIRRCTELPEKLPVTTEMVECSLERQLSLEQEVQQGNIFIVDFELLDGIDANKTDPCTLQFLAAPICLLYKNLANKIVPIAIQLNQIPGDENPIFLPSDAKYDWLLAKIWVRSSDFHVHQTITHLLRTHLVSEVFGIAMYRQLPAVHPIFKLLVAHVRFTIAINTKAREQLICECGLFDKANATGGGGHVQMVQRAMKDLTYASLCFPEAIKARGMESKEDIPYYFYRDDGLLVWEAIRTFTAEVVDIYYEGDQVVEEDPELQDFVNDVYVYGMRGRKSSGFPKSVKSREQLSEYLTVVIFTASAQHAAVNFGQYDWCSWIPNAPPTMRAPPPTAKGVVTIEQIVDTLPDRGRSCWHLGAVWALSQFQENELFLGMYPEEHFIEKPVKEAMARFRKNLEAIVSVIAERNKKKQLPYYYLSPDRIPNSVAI
Protocol: 5. Inhibition of 5-lipoxygenase
The inhibitory action of the compounds according to the invention of 5-lipoxygenase-catalysed degradation of arachidonic acid was determined, as usual, in in-vitro experiments on isolated polymorphonuclear human granulocytes. To this purpose, the cells were incubated at 37° C. with the particular test preparation and the formation of pro-inflammatoryleukotriene B4 (LTB4) was induced after 5 minutes using the calcium ionophor A 23 187 (Calbiochem GmbH, Frankfurt/Main, FRG, Biochemical and Immunochemical Catalog 1985, p. 284). The amount of LTB4 liberated over a period of 10 minutes was determined quantitatively with the aid of a UV detector after separation by means of high-pressure liquid chromatography (HPLC).

[3] = 50 mg/kg p.o., *Significance p <0.05
[4] = single i.p., NMRI mice, mortality within 7 days

| Compound | inhibition in vivo at 50 mg/kg (adjuvant arthritis) | TD50 at 24 h [1] | LD50 at 168 h (in vivo) | responders at 158 mg/kg (acetic acid stretching) | further results |
| --- | --- | --- | --- | --- | --- |
| CCN(C1=NN=C(c2cc(C(C)(C)C)c(O)c(C(C)(C)C)c2)CS1)C(C)C [Example 10] | 82% | 200 mg/kg | > 1200 mg/kg | – | – |
| COc1ccc2cc(C(C)C(=O)O)ccc2c1 (stereo not shown) [naproxen, 2-(6-methoxy-2-naphthyl)-propionic acid, reference compound] | 55% | – | – | – | ED50 (adjuvant arthritis): 17.5 mg/kg; Protective effect against Adriamycin-induced tissue destruction (in words) [2]: ineffective |
| C=CCNC1=NN=C(c2cc(C(C)(C)C)c(O)c(C(C)(C)C)c2)CS1 [Example 14] | 75% | > 200 mg/kg | 600 to 1200 mg/kg | 67% | Protective action ([2]; 25 mg/kg p.o.): 36%; Increase in paw volume ([2]; 25 mg/kg p.o.): 250 µL; Protective action [2, 3]: 59%; Increase in paw volume ([2]; 50 mg/kg p.o.): 160 µL; Protective effect against Adriamycin-induced tissue destruction (in words) [2]: strong, dose-dependent protective effect |
| CC1CCN(C2=NN=C(c3cc(C(C)(C)C)c(O)c(C(C)(C)C)c3)CS2)CC1 [Example 2, 5-(3,5-di-tert.butyl-4-hydroxyphenyl)-2-(4-methylpiperidino)-6H-1,3,4-thiadiazine hydrobromide] | 62% | 100 mg/kg | – | 75% | LD50 at 168 h (in vivo; [4]): 600 to 1200 mg/kg |
| CC(C)(C)c1cc(C2=NN=C(N3CCCCC3)SC2)cc(C(C)(C)C)c1O [Example 18] | 74% | 100 mg/kg | > 1200 mg/kg | – | – |
| CC(C)(C)c1cc(C2=NN=C(N3CCCC3)SC2)cc(C(C)(C)C)c1O [Example 17] | – | – | – | – | IC50 (5-lipoxygenase): 10 µM |
| CCN(C)C1=NN=C(c2cc(C(C)(C)C)c(O)c(C(C)(C)C)c2)CS1 [Example 8] | – | > 200 mg/kg | 300 to 600 mg/kg | 92% | inhibition in vivo at 12.5 mg/kg (adjuvant arthritis; rats): 61%; IC50 (5-lipoxygenase): 13 µM |
| CCN(CC)C1=NN=C(c2cc(C(C)(C)C)c(O)c(C(C)(C)C)c2)CS1 [Example 9] | – | > 200 mg/kg | 600 to 1200 mg/kg | – | inhibition in vivo at 12.5 mg/kg (adjuvant arthritis; rats): 55% |
| CNC1=NN=C(c2cc(C(C)(C)C)c(O)c(C(C)(C)C)c2)CS1 [Example 4, 5-(3,5-di-tert.butyl-4-hydroxyphenyl)-2-methylamino-6H-1,3,4-thiadiazine-hydrochloride] | 81% | 100 to 200 mg/kg | – | 83% | LD50 at 168 h (in vivo; [4]): 300 to 600 mg/kg |
| CN(Cc1ccccc1)C1=NN=C(c2cc(C(C)(C)C)c(O)c(C(C)(C)C)c2)CS1 [Example 13] | 71% | > 200 mg/kg | 600 to 1200 mg/kg | 42% | – |
| Cc1cc(C2=NN=C(N(C)C)SC2)cc(C(C)(C)C)c1O [Example 3, 5-(5-tert.butyl-3-methyl-4-hydroxyphenyl)-2-dimethylamino-6H-1,3,4-thiadiazine hydrobromide] | 58% | > 200 mg/kg | – | 42% | LD50 at 168 h (in vivo; [4]): 600 to 1200 mg/kg; IC50 (5-lipoxygenase): 4 µM |
| CCCN(CCC)C1=NN=C(c2cc(C(C)(C)C)c(O)c(C(C)(C)C)c2)CS1 [Example 11] | 54% | 100 to 200 mg/kg | > 1200 mg/kg | – | – |
| CC(C)(C)c1cc(C2=NN=C(NCc3ccccc3)SC2)cc(C(C)(C)C)c1O [Example 12] | 65% | > 200 mg/kg | 600 to 1200 mg/kg | – | – |
| CC1SC(N(C)C)=NN=C1c1cc(C(C)(C)C)c(O)c(C(C)(C)C)c1 (stereo not shown) [Example 22] | – | > 200 mg/kg | 600 to 1200 mg/kg | 92% | inhibition in vivo at 12.5 mg/kg (adjuvant arthritis; rats): 84% |
| CN(C)C1=NN=C(c2cc(C(C)(C)C)c(O)c(C(C)(C)C)c2)CS1 [Example 1, 5-(3,5-di-tert.butyl-4-hydroxyphenyl)-2-dimethylamino-6H-1,3,4-thiadiazinehydrobromide] | – | 200 mg/kg | 600 to 1200 mg/kg | 83% | inhibition in vivo at 12.5 mg/kg (adjuvant arthritis; rats): 69%; ED50 (adjuvant arthritis; from the dose/action curve, p.o., rats): 6 mg/kg; selectivity ratio [1]: ~33; selectivity ratio (in vivo; LD50 (i.p. mice) divided by ED50 (adjuvant arthritis, rats), read-out: LD50/ED50 quotient): ~150; Protective action ([2]; 25 mg/kg p.o.): 10%; Increase in paw volume ([2]; 25 mg/kg p.o.): 350 µL; Protective action [2, 3]: 69%; Increase in paw volume ([2]; 50 mg/kg p.o.): 120 µL; Protective effect against Adriamycin-induced tissue destruction (in words) [2]: strong, dose-dependent protective effect; IC50 (5-lipoxygenase): 9 µM |
| CN1CCN(C2=NN=C(c3cc(C(C)(C)C)c(O)c(C(C)(C)C)c3)CS2)CC1 [Example 20] | 72% | 200 mg/kg | 150 to 300 mg/kg | – | – |

Source: patent US4940790A, “5-(3-alkyl-5-tert.butyl-4-hydroxyphenyl)-2-amino-6H-1,3,4-thiadiazines” (Hoechst Aktiengesellschaft, priority 1987, dated 1990)
